Data published in patent US20260053767A1, “Hepatoprotective Compositions And Methods” (Jemyll, Ltd., priority 2022, published 2026).

Legend:
[1] = relatively large oral doses (>20 g); cited from earlier work
[2] = test system: rat primary HSCs; test: HSCs activation by flow cytometry (α-SMA and collagen type I protein expression); format: cell-based; settings: 3 days CM from palmitate-treated hepatocytes, then 1% (w/vol) for 24 hours, without compound 25.15%
Protocol: A 10% (w/v) FFA-free BSA (Sigma) solution was prepared in ddH2O and maintained at 55° C. in a water bath. 10 mM FFA/1% BSA solution was obtained by complexing the appropriate amount of palmitate stock solution to 10% BSA at 55° C. for another 30 min. The above solution was then cooled to 25° C., filter sterilized and stored at −20° C. until use. Primary hepatocytes were grown in DMEM supplemented with palmitate (0.4 mM). After 24 h. CM was clarified by centrifugation at 6000 g to remove cell debris, sterile filtered with a 0.45 μm pore size membrane filter and stored in aliquots at −20° C. until use.
Hepatic Stellate cells: Primary hepatic stellate cells were isolated from Wistar rats as described previously (7). In brief, the rats were surgically opened under anesthesia, and the livers were perfused through the IVC with 0.5 mM EGTA, after which the portal vein was cut and the upper IVC was clamped. […] HSCs activation was assessed by flow cytometry by evaluating alpha-smooth muscle Actin (α-SMA) and Collagen type I alpha 1 (COLIA1) protein expression. α-SMA and COLIA1 antibodies were obtained from Thermo Fisher scientific (Waltham, MA). Flow cytometric analysis was conducted with CytoFlex (Beckman Coulter, Brea, CA) and data analyzed with Kaluza software (Beckman Coulter, Brea, CA). […]

In the case of `O=C(O)CCCCCCCCCCC(=O)O` [DDDA, dodecanedioic acid], the “effect on blood glucose in healthy individuals” value [1] is given as “no corresponding effects”, the “effect on blood glucose in individuals diagnosed with NIDDM” value [1] is given as “hypoglycemic effect” and the “expression of COLA1A and α-SMA (flow cytometry)” value [2] is given as 9.18%.
